Read-outs that look alike come from different tables or passages of the source.
Legend:
[1] = biological target: T1, bovine vesicular acetylcholine transporter (VAChT) (Bos taurus, UniProt E1BK36); test: Radioligand Binding Assay; settings: Bovine binding Ki, CHO-K1 membranes with recombinant bovine VAChT, [3H]Compound X6 0.3 nM
T1 sequence (E1BK36 1-524): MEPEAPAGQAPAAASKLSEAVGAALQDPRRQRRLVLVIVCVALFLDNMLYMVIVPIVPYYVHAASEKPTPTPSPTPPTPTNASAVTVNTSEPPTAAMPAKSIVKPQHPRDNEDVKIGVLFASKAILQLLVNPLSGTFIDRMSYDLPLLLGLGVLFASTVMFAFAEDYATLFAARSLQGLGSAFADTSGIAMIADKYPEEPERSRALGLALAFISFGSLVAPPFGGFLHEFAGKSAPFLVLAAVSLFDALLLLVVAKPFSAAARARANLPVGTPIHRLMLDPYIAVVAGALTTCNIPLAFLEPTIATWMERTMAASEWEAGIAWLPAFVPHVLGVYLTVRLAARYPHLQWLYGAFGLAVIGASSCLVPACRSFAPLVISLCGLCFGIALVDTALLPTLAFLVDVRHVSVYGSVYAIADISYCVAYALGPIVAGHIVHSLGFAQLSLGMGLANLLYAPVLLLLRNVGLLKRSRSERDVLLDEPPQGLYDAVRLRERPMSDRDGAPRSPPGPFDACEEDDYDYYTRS

[2] = system: Dirofilaria immitis microfilariae; test: Dirofilaria immitis, Microfilariae (DiMF) In Vitro Assay; settings: Dirofilaria immitis
Haemonchus contortus L3 = test: Haemonchus contortus, Larvae Stage 3 (HcL3) In Vitro Assay; settings: Haemonchus contortus
[3] = 96 hours, 37° C., read-out: HcL3 MEC
[4] = 72 h, read-out: Di MF, MEC, decrease in microfilariae motility by visual assessment, curve starting at 100 μM
[5] = 96 h, read-out: HcL3 MEC, Minimal Effective Concentration whereby worm motility is inhibited by approximately 70%, 37° C., tested 0.001-100 μM

SMILES	Ki [1] [nM]	minimal effective concentration ([2]; 72 hours, read-out: Di MF) [µM]	minimal effective concentration (Haemonchus contortus L3; [3]) [µM]	minimal effective concentration [2, 4] [µM]	minimal effective concentration (Haemonchus contortus L3; [5]) [µM]
O=C(NCc1ccnc(F)c1)N1CC2(CCN(C/C=C/c3ccc(Cl)c(Cl)c3)CC2)c2cc(Br)ccc21 [Example 104, 5-bromo-1′-[(E)-3-(3,4-dichlorophenyl)allyl]-N-[(2-fluoro-4-pyridyl)methyl]spiro[indoline-3,4′-piperidine]-1-carboxamide]	43.7	10	3.3		
O=C(NCc1ccnc(F)c1)N1CC2(CCN(C/C=C/c3ccc(Cl)cc3)CC2)c2cc(Br)ccc21 [Example 105, 5-bromo-1′-[(E)-3-(4-chlorophenyl)allyl]-N-[(2-fluoro-4-pyridyl)methyl]spiro[indoline-3,4′-piperidine]-1-carboxamide]	32.2			3.3	3.3
O=C(NCc1ccnc(F)c1)N1CC2(CCN(C/C=C/c3ccc(F)cc3)CC2)c2cc(Br)ccc21 [Example 106, 5-bromo-1′-[(E)-3-(4-fluorophenyl)allyl]-N-[(2-fluoro-4-pyridyl)methyl]spiro[indoline-3,4′-piperidine]-1-carboxamide]	72.7			10	3.3
O=C(NCc1ccnc(F)c1)N1CC2(CCN(C/C=C/c3ccc(C(F)(F)F)cc3)CC2)c2cc(Br)ccc21 [Example 107, 5-bromo-N-[(2-fluoro-4-pyridyl)methyl]-1′-[(E)-3-[4-(trifluoromethyl)phenyl]allyl]spiro[indoline-3,4′-piperidine]-1-carboxamide]	486			3.3	3.3
N#Cc1cccc(-c2ccc3c(c2)C2(CCN(C/C=C/c4ccc(Cl)c(Cl)c4)CC2)CN3C(=O)NCc2ccnc(F)c2)c1 [Example 108, 5-(3-cyanophenyl)-1′-[(E)-3-(3,4-dichlorophenyl)allyl]-N-[(2-fluoro-4-pyridyl)methyl]spiro[indoline-3,4′-piperidine]-1-carboxamide]	32600			3.3	100
N#Cc1ccc(-c2ccc3c(c2)C2(CCN(C/C=C/c4ccc(Cl)cc4)CC2)CN3C(=O)NCc2ccnc(F)c2)cn1 [Example 109, 1′-[(E)-3-(4-chlorophenyl)allyl]-5-(6-cyano-3-pyridyl)-N-[(2-fluoro-4-pyridyl)methyl]spiro[indoline-3,4′-piperidine]-1-carboxamide]	50.8			1.8	3.3
O=C(NCc1ccnc(F)c1)N1CC2(CCN(C/C=C/c3ccc(Cl)c(Cl)c3)CC2)c2cc(-c3cccnc3)ccc21 [Example 110, 1′-[(E)-3-(3,4-dichlorophenyl)allyl]-N-[(2-fluoro-4-pyridyl)methyl]-5-(3-pyridyl)spiro[indoline-3,4′-piperidine]-1-carboxamide]	7820			3.3	69.1
O=C(NCc1ccnc(F)c1)N1CC2(CCN(C/C=C/c3ccc(Cl)c(Cl)c3)CC2)c2cc(-c3cn[nH]c3)ccc21 [Example 111, 1′-[(E)-3-(3,4-dichlorophenyl)allyl]-N-[(2-fluoro-4-pyridyl)methyl]-5-(1H-pyrazol-4-yl)spiro[indoline-3,4′-piperidine]-1-carboxamide]	3380			10	100
O=C(NCc1ccnc(F)c1)N1CC2(CCN(C/C=C/c3ccc(Cl)c(Cl)c3)CC2)c2cc(-c3cncnc3)ccc21 [Example 112, 1′-[(E)-3-(3,4-dichlorophenyl)allyl]-N-[(2-fluoro-4-pyridyl)methyl]-5-pyrimidin-5-yl-spiro[indoline-3,4′-piperidine]-1-carboxamide]	3340			4.4	100
N#Cc1ccc2c(c1)C1(CCN(C/C=C/c3ccc(Cl)c(Cl)c3)CC1)CN2C(=O)NCc1ccnc(F)c1 [Example 113, 5-cyano-1′-[(E)-3-(3,4-dichlorophenyl)allyl]-N-[(2-fluoro-4-pyridyl)methyl]spiro[indoline-3,4′-piperidine]-1-carboxamide]	66.8			2.4	1
Cc1cccc2c1C1(CCN(C/C=C/c3ccc(Cl)c(Cl)c3)CC1)CN2C(=O)NCc1ccnc(F)c1 [Example 114, 1′-[(E)-3-(3,4-dichlorophenyl)allyl]-N-[(2-fluoro-4-pyridyl)methyl]-4-methyl-spiro[indoline-3,4′-piperidine]-1-carboxamide]	241			10	5.7
N#Cc1cncc(-c2ccc3c(c2)C2(CCN(C/C=C/c4ccc(Cl)cc4)CC2)CN3C(=O)NCc2ccnc(F)c2)c1 [Example 115, 1′-[(E)-3-(4-chlorophenyl)allyl]-5-(5-cyano-3-pyridyl)-N-[(2-fluoro-4-pyridyl)methyl]spiro[indoline-3,4′-piperidine]-1-carboxamide]	3930			7.6	100
N#Cc1ccc(-c2ccc3c(c2)C2(CCN(C/C=C/c4ccc(Cl)c(Cl)c4)CC2)CN3C(=O)NCc2ccnc(F)c2)cn1 [Example 116, 5-(6-cyano-3-pyridyl)-1′-[(E)-3-(3,4-dichlorophenyl)allyl]-N-[(2-fluoro-4-pyridyl)methyl]spiro[indoline-3,4′-piperidine]-1-carboxamide]	58.5			4	5
COc1ccc2ccc(CN3CCC4(CC3)CN(C(=O)NCc3ccnc(F)c3)c3ccc(C#N)cc34)c(C)c2n1 [Example 117, 5-cyano-N-[(2-fluoro-4-pyridyl)methyl]-1′-[(2-methoxy-8-methyl-7-quinolyl)methyl]spiro[indoline-3,4′-piperidine]-1-carboxamide]	191			10	10
COc1ccc2ccc(CN3CCC4(CC3)CN(C(=O)NCc3ccnc(Cl)c3)c3ccc(C#N)cc34)c(C)c2n1 [Example 118, N-[(2-chloro-4-pyridyl)methyl]-5-cyano-1′-[(2-methoxy-8-methyl-7-quinolyl)methyl]spiro[indoline-3,4′-piperidine]-1-carboxamide]	28.4			57.4	3.3
COc1ccc(-c2ccc3c(c2)C2(CCN(C/C=C/c4ccc(Cl)cc4)CC2)CN3C(=O)NCc2ccnc(Cl)c2)cn1 [Example 119, 1′-[(E)-3-(4-chlorophenyl)allyl]-N-[(2-chloro-4-pyridyl)methyl]-5-(6-methoxy-3-pyridyl)spiro[indoline-3,4′-piperidine]-1-carboxamide]	177			10	100
N#Cc1ccc(-c2ccc3c(c2)C2(CCN(C/C=C/c4ccc(C(F)(F)F)cc4)CC2)CN3C(=O)NCc2ccnc(Cl)c2)cn1 [Example 120, N-[(2-chloro-4-pyridyl)methyl]-5-(6-cyano-3-pyridyl)-1′-[(E)-3-[4-(trifluoromethyl)phenyl]allyl]spiro[indoline-3,4′-piperidine]-1-carboxamide]	13900			1.2	100
O=C(NCc1ccnc(Cl)c1)N1CC2(CCN(C/C=C/c3ccc(Cl)cc3)CC2)c2c(OC(F)(F)F)ccc(Cl)c21 [Example 121, (E)-7-chloro-1′-(3-(4-chlorophenyl)allyl)-N-((2-chloropyridin-4-yl)methyl)-4-(trifluoromethoxy)spiro[indoline-3,4′-piperidine]-1-carboxamide]	1260			6.9	100
O=C(NCc1ccnc(Cl)c1)N1CC2(CCN(C/C=C/c3ccc(Cl)cc3)CC2)c2c(F)cc(C(F)(F)F)cc21 [Example 122, (E)-1′-(3-(4-chlorophenyl)allyl)-N-((2-chloropyridin-4-yl)methyl)-4-fluoro-6-(trifluoromethyl)spiro[indoline-3,4′-piperidine]-1-carboxamide]	32.3	10	0.5		
Cc1ccc2c(c1)C1(CCN(C/C=C/c3ccc(Cl)c(Cl)c3)CC1)CN2C(=O)NCc1ccnc(Cl)c1 [Example 123, (E)-N-((2-chloropyridin-4-yl)methyl)-1′-(3-(3,4-dichlorophenyl)allyl)-5-methylspiro[indoline-3,4′-piperidine]-1-carboxamide]	20.8	10.2	1		
O=C(NCc1ccnc(Cl)c1)N1CC2(CCN(C/C=C/c3ccc(C(F)(F)F)cn3)CC2)c2ccc(C(F)(F)F)cc21 [Example 124, (E)-N-((2-chloropyridin-4-yl)methyl)-6-(trifluoromethyl)-1′-(3-(5-(trifluoromethyl)pyridin-2-yl)allyl)spiro[indoline-3,4′-piperidine]-1-carboxamide]	106			10	1

From US20160296499A1, “Spiroindoline Antiparasitic Derivatives” (ZOETIS SERVICES LLC, priority 2013, published 2016)
